Assay results: patent US7301033B2, “PPAR-activating compound” (Kowa Co., Ltd., priority 2005, dated 2007)

Legend:
Type in all cases: cell-based
human PPARα = target: T1, human PPARα (Homo sapiens, UniProt Q07869); assay: Gal4-human PPARα chimera luciferase transfection assay in COS cells
T1 construct: 166th to 467th amino acids of human PPARα; expressed in transfected cells; host or cells: COS cells (African green monkey kidney)
T1 sequence (Q07869 166-467): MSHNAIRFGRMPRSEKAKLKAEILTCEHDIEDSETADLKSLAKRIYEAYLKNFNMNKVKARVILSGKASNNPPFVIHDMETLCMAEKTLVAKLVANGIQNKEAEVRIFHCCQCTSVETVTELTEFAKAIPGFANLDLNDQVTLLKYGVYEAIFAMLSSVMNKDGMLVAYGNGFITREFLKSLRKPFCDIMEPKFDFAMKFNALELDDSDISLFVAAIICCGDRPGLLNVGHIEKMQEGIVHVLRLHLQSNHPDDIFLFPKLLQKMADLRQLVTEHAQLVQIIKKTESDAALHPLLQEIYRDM
Description: (§1) The PPAR receptor-activating effect of the compound of the present invention represented by the formula (1) was measured by a method described below (Proc. Natl. Acad. Sci., 92, pp 7297-7301, 1995; Journal of Lipid Research, 40, pp 2099-2110, 1999; and Proc. Natl. Acad. Sci, 98, pp 5306-5311, 2001).
(§2) All the transfection assays were conducted using African green monkey kidney-derived cell line COS cells. The COS cells were cultured at 5% CO2 concentration using a DMEM medium containing 10% fetal bovine serum, glutamic acid, and an antibiotic as a culture solution.
(§3) Gal4-human PPARs chimeric constructs which were fused the DNA-binding region of yeast transcription factor Gal4 with the ligand-binding region of human PPARs were used as an expression vector. A chimera where 1st to 147th amino acids of the Gal4 transcription factor were fused with 166th to 467th amino acids of human PPARα, with 182nd to 505th amino acids of human PPARγ2, or with 137th to 441st amino acids of human PPARδ was used as the chimera for each isoform. A reporter vector used was firefly luciferase whose promoter region contains five Gal4 recognition sequences. The plasmids were transfected into the cells by a method using Lipofectamine. In addition, a β-galactosidase expression vector was used as an internal standard.
(§4) After the transfection into the cells, the medium was substituted with a DMEM medium (containing 0.2% serum) supplemented with the compound, in which the cells were then cultured for additional 16 hours. Thereafter, luciferase activity and β-galactosidase activity in the cell lysate were measured.
(§5) In the present experiment, dimethyl sulfoxide (DMSO) was used in the dissolution and dilution of the compound. When the cells were treated, the DMSO concentration in the DMEM medium (containing 0.2% serum) was adjusted to 0.1%.

human PPARγ2 = target: T2, human PPARγ2 (Homo sapiens, UniProt P37231); assay: Gal4-human PPARγ2 chimera luciferase transfection assay in COS cells; conditions: compound added at 1 μM, luciferase activity with rosiglitazone 1 μM given as 10.0, 16 hours
T2 construct: with 182nd to 505th amino acids of human PPARγ2; expressed in transfected cells; host or cells: COS cells (African green monkey kidney)
T2 sequence (P37231 182-505): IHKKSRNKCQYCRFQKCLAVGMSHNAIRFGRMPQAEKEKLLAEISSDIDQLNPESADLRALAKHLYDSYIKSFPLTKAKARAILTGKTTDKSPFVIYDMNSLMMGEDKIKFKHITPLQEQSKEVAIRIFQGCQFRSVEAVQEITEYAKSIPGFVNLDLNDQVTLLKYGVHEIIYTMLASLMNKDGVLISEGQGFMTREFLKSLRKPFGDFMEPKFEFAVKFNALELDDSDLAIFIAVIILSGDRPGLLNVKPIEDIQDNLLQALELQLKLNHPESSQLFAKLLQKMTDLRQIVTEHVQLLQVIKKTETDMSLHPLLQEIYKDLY
Description: as §1, §2, §3, §4, §5

human PPARδ = target: T3, human PPARδ (Homo sapiens, UniProt Q03181); assay: Gal4-human PPARδ chimera luciferase transfection assay in COS cells; conditions: compound added at 1 μM, luciferase activity with GW501516 1 μM given as 10.0, 16 hours
T3 construct: with 137th to 441st amino acids of human PPARδ; expressed in transfected cells; host or cells: COS cells (African green monkey kidney)
T3 sequence (Q03181 137-441): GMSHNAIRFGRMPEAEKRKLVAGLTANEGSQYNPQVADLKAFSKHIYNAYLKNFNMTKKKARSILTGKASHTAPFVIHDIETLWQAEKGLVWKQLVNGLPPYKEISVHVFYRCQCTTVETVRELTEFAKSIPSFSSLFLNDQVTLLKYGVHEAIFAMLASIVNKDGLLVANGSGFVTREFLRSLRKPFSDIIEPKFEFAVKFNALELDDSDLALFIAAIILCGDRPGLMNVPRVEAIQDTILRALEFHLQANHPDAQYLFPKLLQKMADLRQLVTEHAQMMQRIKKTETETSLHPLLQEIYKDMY
Description: as §1, §2, §3, §4, §5

[1] = compound added at 1 μM, luciferase activity with WY14643 10 μM given as 10.0, 16 hours

Compound	hPPAR; Relative activity α (human PPARα; [1])	hPPAR; Relative activity γ (human PPARγ2)	hPPAR; Relative activity δ (human PPARδ)	hPPAR; Relative activity α (human PPARα; positive compound at 10 μM, its luciferase activity given as 10.0, 16 hours)
CCCCCCCCN(CCCCCSc1ccccc1C(=O)O)c1nc2ccccc2o1 [Example 102, 2-[5-[N-(Benzoxazol-2-yl)-N-n-octyl]aminopentylthio]benzoic acid]	20.3	2.1	0.9	–
CCN(CCCCCSc1ccccc1C(=O)O)c1nc2ccccc2o1 [Example 99, 2-[5-[N-(Benzoxazol-2-yl)-N-ethyl]aminopentylthio]benzoic acid]	16.8	2.2	0.3	–
Cc1c(CN(CCSc2ccccc2C(=O)O)c2nc3ccccc3o2)cccc1[N+](=O)[O-] [Example 73, 2-[2-[N-(Benzoxazol-2-yl)-N-(2-methyl-3-nitrobenzyl) ]aminoethylthio]benzoic acid]	11.2	1.1	0.2	–
O=C(O)c1cccc(OCCCCN(CCCOc2ccccc2)c2nc3ccccc3o2)c1 [Example 48, 3-[4-[N-(Benzoxazol-2-yl)-N-3-phenoxypropyl]aminobutoxy]benzoic acid]	16.0	2.1	0.2	–
CCCCCCN(CCCCSc1ccccc1C(=O)O)c1nc2ccccc2o1 [Example 93, 2-[4-[N-(Benzoxazol-2-yl)-N-n-hexyl]aminobutylthio]benzoic acid]	12.3	4.1	0.4	–
CCCCCCCCN(CCCCSc1ccccc1C(=O)O)c1nc2ccccc2o1 [Example 94, 2-[4-[N-(Benzoxazol-2-yl)-N-n-octyl]aminobutylthio]benzoic acid]	12.0	3.5	1.4	–
CCCCCCCN(CCSc1ccccc1C(=O)O)c1nc2ccccc2o1 [Example 77, 2-[2-[N-(Benzoxazol-2-yl)-N-n-heptyl]aminoethylthio]benzoic acid]	18.9	2.0	0.2	–
CC(C)N(CCCCCSc1ccccc1C(=O)O)c1nc2ccccc2o1 [Example 70, 2-[5-[N-(Benzoxazol-2-yl)-N-isopropyl]aminopentylthio]benzoic acid]	12.4	1.4	0.2	–
O=C(O)c1ccccc1SCCCCCCN(Cc1ccc(Cl)cc1)c1nc2ccccc2o1 [Example 106, 2-[6-[N-(Benzoxazol-2-yl)-N-4-chlorobenzyl]aminohexylthio]benzoic acid]	13.1	2.4	0.0	–
CCCCN(CCCCCSc1ccccc1C(=O)O)c1nc2ccccc2o1 [Example 71, 2-[5-[N-(Benzoxazol-2-yl)-N-n-butyl]aminopentylthio]benzoic acid]	11.0	2.0	0.5	–
CCCN(CCCCSc1ccccc1C(=O)O)c1nc2ccccc2s1 [Example 110, 2-[4-[N-(Benzothiazol-2-yl)-N-n-propyl]aminobutylthio]benzoic acid]	11.0	2.0	0.2	–
O=C(O)c1ccccc1SCCCCN(CCCc1ccccc1)c1nc2ccccc2o1 [Example 97, 2-[4-[N-(Benzoxazol-2-yl)-N-3-phenylpropyl]aminobutylthio]benzoic acid]	11.6	4.6	0.2	–
CCCCCCN(CCCCOc1ccc(C(=O)O)cc1)c1nc2ccccc2o1 [Example 60, 4-[4-[N-(Benzoxazol-2-yl)-N-n-hexyl]aminobutoxy]benzoic acid]	11.9	1.8	0.1	–
CN(CCCCSc1ccccc1C(=O)O)c1nc2ccccc2s1 [Example 109, 2-[4-[N-(Benzothiazol-2-yl)-N-methyl]aminobutylthio]benzoic acid]	12.1	0.8	0.2	–
CCCCCCCCN(CCCOc1cccc(C(=O)O)c1)c1nc2ccccc2o1 [Example 20, 3-[3-[N-(Benzoxazol-2-yl)-N-n-octyl]aminopropoxy]benzoic acid]	21.7	1.5	0.2	–
CCCCCCCN(CCCOc1cccc(C(=O)O)c1)c1nc2ccccc2o1 [Example 19, 3-[3-[N-(Benzoxazol-2-yl)-N-n-heptyl]aminopropoxy]benzoic acid]	15.1	1.7	0.5	–
CCCCCCCCN(CCOc1ccccc1C(=O)O)c1nc2ccccc2o1 [Example 13, 2-[2-[N-(Benzoxazol-2-yl)-N-n-octyl]aminoethoxy]benzoic acid]	15.2	6.2	0.1	–
O=C(O)c1ccccc1OCCCCN(CCOc1ccccc1)c1nc2ccccc2o1 [Example 52, 2-[4-[N-(Benzoxazol-2-yl)-N-2-phenoxyethyl]aminobutoxy]benzoic acid]	13.8	2.1	0.1	–
O=C(O)c1ccccc1SCCCCCN(CCCc1ccccc1)c1nc2ccccc2o1 [Example 104, 2-[5-[N-(BenzoxazoI-2-yl)-N-3-phenylpropyl]aminopentylthio]benzoic acid]	18.7	2.7	0.8	–
O=C(O)c1ccccc1SCCCCN(CCOc1ccccc1)c1nc2ccccc2s1 [Example 111, 2-[4-[N-(Benzothiazol-2-yl)-N-2-phenoxyethyl]aminobutylthio]benzoic acid]	16.0	4.6	0.3	–
O=C(O)c1ccccc1SCCN(Cc1ccccc1[N+](=O)[O-])c1nc2ccccc2o1 [Example 74, 2-[2-[N-(Benzoxazol-2-yl)-N-2-nitrobenzyl]aminoethylthio]benzoic acid]	10.2	0.7	0.3	–
CCCN(CCCCCSc1ccccc1C(=O)O)c1nc2ccccc2o1 [Example 103, 2-[5-[N-(Benzoxazol-2-yl)-N-n-propyl]aminopentylthio]benzoic acid]	12.4	2.0	0.2	–
CCCCCN(CCCCOc1cccc(C(=O)O)c1)c1nc2ccccc2o1 [Example 47, 3-[4-[N-(Benzoxazol-2-yl)-N-n-pentyl]aminobutoxy]benzoic acid]	10.4	1.2	0.3	–
Cc1cccc(Nc2cc(Cl)nc(SCC(=O)O)n2)c1C [WY14643, reference compound]	–	–	–	10.0
